Test results: US10844411B2, “Inhibitors of sterol metabolism for their use to accumulate triglycerides in microalgae, and methods thereof” (Commissariat A L'energie Atomique Et Aux Energies …, priority 2014, dated 2020)

Test system: Nannochloropsis gaditana
Assay: Nile Red staining of oil accumulation in Nannochloropsis gaditana incubated with inhibitors of sterol metabolism
Type: cell-based
Conditions: ESAW 1N1P and ESAW 10N10P media; time course at least 7 days; FIGS. 5 and 6
Protocol: Experiments were performed in two different conditions of Nannochloropsis gaditana: cells were either cultured in ESAW containing 47 mg·L^−1 NaNO3 and 3 mg·L^−1 NaH2PO4 (medium 1N1P), or 470 mg/L NaNO3 and 30 mg·L^−1NaH2PO4) (medium 10N10P). Cells in an exponential growth phase were collected via centrifugation at 3500 rpm for 10 minutes. The supernatant was discarded and the cells were resuspended in the same volume of ESAW medium (either 1N1P or 10N10P). The cultures were centrifuged again at 3500 rpm, for 10 minutes, and the supernatant was discarded. The pellet was resuspended in ESAW (either 1N1P or 10N10P) to obtain a concentration of 2×10^6 cells/mL. […]
Each day, an aliquot was taken from each flask in order to perform a Nile Red stain and cell counts. […] In order to detect any background noise, fluorescence was measured at excitation and emission of 530 nm and 580 nm, respectively. […] After 20 minutes of incubation, Nile Red fluorescence was measured at excitation and emission of 530 nm and 580 nm, respectively.
Nile Red Fluorescence was normalized by calculating the relative fluorescence units per million cells. Results were expressed as a percentage of Nile Red fluorescence of Nannochloropsis gaditana cultured in complete medium (either ESAW (10N10P) or ESAW (1N1P)).

Structure (SMILES) | accumulation of oil (Nile Red fluorescence per million cells)
CN(Cc1ccc(C(C)(C)C)cc1)Cc1cccc2ccccc12 [Butenafine] | trigger the accumulation of oil
C#C[C@]1(O)CC[C@H]2[C@@H]3CCc4cc(O)ccc4[C@H]3CC[C@@]21C [Ethinylestradiol] | trigger the accumulation of oil
